{
  "source": "patent US11439641B2",
  "about": "“Pyrimidine JAK inhibitors for the treatment of skin diseases” (THERAVANCE BIOPHARMA R&D IP, LLC, priority 2019, dated 2022)",
  "key": {"[1]": {"molecular_target": "Tyk2 (Homo sapiens (Human), UniProt P29597)", "sequence (P29597 whole entry)": "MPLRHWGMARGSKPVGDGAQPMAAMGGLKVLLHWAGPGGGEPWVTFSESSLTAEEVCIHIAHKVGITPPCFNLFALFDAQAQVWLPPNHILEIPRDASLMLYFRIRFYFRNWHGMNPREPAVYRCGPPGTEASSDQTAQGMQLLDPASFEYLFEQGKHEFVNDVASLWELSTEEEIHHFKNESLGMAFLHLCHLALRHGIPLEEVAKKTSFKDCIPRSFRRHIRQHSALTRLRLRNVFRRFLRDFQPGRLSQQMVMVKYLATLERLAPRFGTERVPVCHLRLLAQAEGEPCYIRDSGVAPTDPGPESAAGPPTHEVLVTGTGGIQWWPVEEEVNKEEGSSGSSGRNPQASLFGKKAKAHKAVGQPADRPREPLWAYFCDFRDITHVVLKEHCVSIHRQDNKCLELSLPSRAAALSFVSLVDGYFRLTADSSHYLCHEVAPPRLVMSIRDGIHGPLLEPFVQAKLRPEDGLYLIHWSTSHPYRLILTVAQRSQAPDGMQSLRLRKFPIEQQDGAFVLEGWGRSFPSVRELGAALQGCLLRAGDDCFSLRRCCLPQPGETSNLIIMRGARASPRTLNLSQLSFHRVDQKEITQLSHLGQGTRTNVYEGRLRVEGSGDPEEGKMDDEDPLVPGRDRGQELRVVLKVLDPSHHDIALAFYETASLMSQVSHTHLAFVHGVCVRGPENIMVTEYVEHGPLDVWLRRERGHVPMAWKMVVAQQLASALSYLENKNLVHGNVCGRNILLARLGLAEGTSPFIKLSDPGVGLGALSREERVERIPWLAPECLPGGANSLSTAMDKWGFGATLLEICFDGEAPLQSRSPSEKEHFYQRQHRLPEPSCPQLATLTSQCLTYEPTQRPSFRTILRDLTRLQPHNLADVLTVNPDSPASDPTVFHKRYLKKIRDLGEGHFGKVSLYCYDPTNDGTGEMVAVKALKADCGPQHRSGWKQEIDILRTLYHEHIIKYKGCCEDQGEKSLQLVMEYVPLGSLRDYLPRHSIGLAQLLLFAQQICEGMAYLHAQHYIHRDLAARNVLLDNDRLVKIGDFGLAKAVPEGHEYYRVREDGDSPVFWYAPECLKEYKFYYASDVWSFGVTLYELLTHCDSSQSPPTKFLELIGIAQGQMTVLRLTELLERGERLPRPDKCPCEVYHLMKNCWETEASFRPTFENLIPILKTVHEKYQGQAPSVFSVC", "assay": "Biochemical JAK and Tyk2 Kinase Assays (LanthaScreen), Tyk2", "details": "10 μM ATP (Km), pIC50 converted to pKi by Cheng-Prusoff", "description": "Assay 1: Biochemical JAK and Tyk2 Kinase Assays\nA panel of four LanthaScreen JAK biochemical assays (JAK1, 2, 3 and Tyk2) were carried in a common kinase reaction buffer (50 mM HEPES, pH 7.5, 0.01% Brij-35, 10 mM MgCl2, and 1 mM EGTA). Recombinant GST-tagged JAK enzymes and a GFP-tagged STAT1 peptide substrate were obtained from Life Technologies.\nSerially or discretely diluted compounds were pre-incubated with each of the four JAK enzymes and the substrate in white 384-well microplates (Corning) at ambient temperature for 1 h. ATP was subsequently added to initiate the kinase reactions in 10 μL total volume, with 1% DMSO. The final enzyme concentrations for JAK1, 2, 3 and Tyk2 are 4.2 nM, 0.1 nM, 1 nM, and 0.25 nM respectively; the corresponding Km ATP concentrations used are 25 μM, 3 μM, 1.6 μM, and 10 μM; while the substrate concentration is 200 nM for all four assays. Kinase reactions were allowed to proceed for 1 hour at ambient temperature before a 10 μL preparation of EDTA (10 mM final concentration) and Tb-anti-pSTAT1 (pTyr701) antibody (Life Technologies, 2 nM final concentration) in TR-FRET dilution buffer (Life Technologies) was added. The plates were allowed to incubate at ambient temperature for 1 h before being read on the EnVision reader (Perkin Elmer). Emission ratio signals (520 nm/495 nm) were recorded and utilized to calculate the percent inhibition values based on DMSO and background controls.\nFor dose-response analysis, percent inhibition data were plotted vs. compound concentrations, and IC50 values were determined from a 4-parameter robust fit model with the Prism software (GraphPad Software). Results were expressed as pIC50 (negative logarithm of IC50) and subsequently converted to pKi (negative logarithm of dissociation constant, Ki) using the Cheng-Prusoff equation."}, "[2]": {"test_system": "IL-2 stimulated pSTAT5 in Tall-1 T cells", "assay": "Inhibition of IL-2 Stimulated pSTAT5 in Tall-1 T Cells", "format": "cell-based", "details": "Tall-1 human T cell line, IL-2 300 ng/mL, AlphaLisa", "summary_of_the_method": "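Cells preincubated with compound 1 hour at 37° C, then stimulated with IL-2 (final 300 ng/mL) for 30 minutes. After lysis, pSTAT5 (Tyr694/699) read by AlphaLISA luminescence. IC50 from inhibition curves, reported as pIC50 (mean±SD).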"}, "[3]": {"molecular_target": "JAK1 (Homo sapiens (Human), UniProt P23458)", "sequence (P23458 whole entry)": "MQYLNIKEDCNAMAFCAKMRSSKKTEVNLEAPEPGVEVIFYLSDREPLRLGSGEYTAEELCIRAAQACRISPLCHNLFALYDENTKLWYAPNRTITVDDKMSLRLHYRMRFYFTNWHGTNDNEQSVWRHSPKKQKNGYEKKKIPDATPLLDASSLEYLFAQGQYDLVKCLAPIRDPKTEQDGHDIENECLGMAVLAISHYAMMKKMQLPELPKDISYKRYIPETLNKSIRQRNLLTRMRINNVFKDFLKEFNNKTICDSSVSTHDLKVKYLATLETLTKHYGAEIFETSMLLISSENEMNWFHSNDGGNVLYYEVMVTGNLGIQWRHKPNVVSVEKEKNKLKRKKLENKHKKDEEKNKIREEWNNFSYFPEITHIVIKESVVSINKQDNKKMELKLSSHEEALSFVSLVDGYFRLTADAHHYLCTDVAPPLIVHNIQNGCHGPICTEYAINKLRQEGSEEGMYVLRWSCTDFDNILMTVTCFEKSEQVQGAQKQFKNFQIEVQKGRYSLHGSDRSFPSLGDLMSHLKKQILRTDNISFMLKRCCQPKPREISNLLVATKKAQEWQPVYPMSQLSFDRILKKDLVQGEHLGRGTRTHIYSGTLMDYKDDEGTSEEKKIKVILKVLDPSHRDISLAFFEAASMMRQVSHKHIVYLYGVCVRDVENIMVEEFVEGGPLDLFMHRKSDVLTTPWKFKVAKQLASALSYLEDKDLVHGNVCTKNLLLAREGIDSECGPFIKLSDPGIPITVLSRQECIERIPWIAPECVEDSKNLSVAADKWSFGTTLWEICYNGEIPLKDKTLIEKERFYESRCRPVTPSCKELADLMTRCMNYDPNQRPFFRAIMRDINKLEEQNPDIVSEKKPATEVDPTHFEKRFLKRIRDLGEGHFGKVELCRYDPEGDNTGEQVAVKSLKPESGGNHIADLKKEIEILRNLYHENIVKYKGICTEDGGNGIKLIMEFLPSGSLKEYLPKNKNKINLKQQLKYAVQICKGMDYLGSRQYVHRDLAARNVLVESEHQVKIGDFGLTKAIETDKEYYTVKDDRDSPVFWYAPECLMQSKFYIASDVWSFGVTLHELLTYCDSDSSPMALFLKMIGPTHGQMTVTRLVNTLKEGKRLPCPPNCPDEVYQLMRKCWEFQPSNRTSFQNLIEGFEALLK", "assay": "Biochemical JAK and Tyk2 Kinase Assays (LanthaScreen), JAK1", "details": "25 μM ATP (Km), pIC50 converted to pKi by Cheng-Prusoff"}, "[4]": {"assay": "Aqueous Solubility Assay", "details": "PBS buffer pH 7.4; maximum upper limit 1,000 μM"}, "[5]": {"assay": "Human Liver Microsome Assay", "details": "human liver microsomes 0.1 mg/mL, 0.1 μM compound, 1 mM NADPH, 37° C.", "experimental": "Assay 4: Human Liver Microsome Assay\nThe objective of this assay was to assess the metabolic stability of test compounds in an in vitro human liver sub-fraction. Human liver microsomes obtained from Bioreclamation-IVT (Baltimore, Md.) were thawed on ice and diluted into 0.1 M potassium phosphate buffer pH 7.4 to yield final incubation protein concentrations of 0.1 mg/mL. Test compounds (10 mM) were diluted into NADPH cofactor to yield final incubation concentrations of 0.1 μM test compound and 1 mM NADPH. Incubations were conducted at 37° C. temperature and test aliquots were taken at time points 0, 5, 8, 15, 30 and 45 minutes. Each aliquot was crashed into water with 3% formic acid and 1 μM internal standard. The resulting samples were injected onto an LC-MS/MS system for analysis.\nFor each incubation, the peak area of the analytes in each t0 aliquot was set to 100% and the peak areas from subsequent time point aliquots were converted to percentage of parent compound remaining relative to t0. The percentage of parent compound remaining was converted to natural log scale and plotted versus time in minutes. A linear regression analysis was performed for the initial decline of the parent disappearance profile and a formula for the best-fit line determined. The slope of the resultant line was normalized to protein concentration in mg/mL protein or number of cells/mL and CLint was calculated as follows for liver microsomes: CLint(μL·min^−1·mg^−1)=(Slope×1000)/[protein,mg/mL]\nCLint values from 9-49 μl/min/mg represent moderate clearance (i.e. 30-70% of hepatic blood flow in human) and values >50 μl/min/mg represent high hepatic clearance (i.e. >70% of hepatic blood flow in human)."}, "[6]": {"molecular_target": "JAK3 (Homo sapiens (Human), UniProt P52333)", "sequence (P52333 whole entry)": "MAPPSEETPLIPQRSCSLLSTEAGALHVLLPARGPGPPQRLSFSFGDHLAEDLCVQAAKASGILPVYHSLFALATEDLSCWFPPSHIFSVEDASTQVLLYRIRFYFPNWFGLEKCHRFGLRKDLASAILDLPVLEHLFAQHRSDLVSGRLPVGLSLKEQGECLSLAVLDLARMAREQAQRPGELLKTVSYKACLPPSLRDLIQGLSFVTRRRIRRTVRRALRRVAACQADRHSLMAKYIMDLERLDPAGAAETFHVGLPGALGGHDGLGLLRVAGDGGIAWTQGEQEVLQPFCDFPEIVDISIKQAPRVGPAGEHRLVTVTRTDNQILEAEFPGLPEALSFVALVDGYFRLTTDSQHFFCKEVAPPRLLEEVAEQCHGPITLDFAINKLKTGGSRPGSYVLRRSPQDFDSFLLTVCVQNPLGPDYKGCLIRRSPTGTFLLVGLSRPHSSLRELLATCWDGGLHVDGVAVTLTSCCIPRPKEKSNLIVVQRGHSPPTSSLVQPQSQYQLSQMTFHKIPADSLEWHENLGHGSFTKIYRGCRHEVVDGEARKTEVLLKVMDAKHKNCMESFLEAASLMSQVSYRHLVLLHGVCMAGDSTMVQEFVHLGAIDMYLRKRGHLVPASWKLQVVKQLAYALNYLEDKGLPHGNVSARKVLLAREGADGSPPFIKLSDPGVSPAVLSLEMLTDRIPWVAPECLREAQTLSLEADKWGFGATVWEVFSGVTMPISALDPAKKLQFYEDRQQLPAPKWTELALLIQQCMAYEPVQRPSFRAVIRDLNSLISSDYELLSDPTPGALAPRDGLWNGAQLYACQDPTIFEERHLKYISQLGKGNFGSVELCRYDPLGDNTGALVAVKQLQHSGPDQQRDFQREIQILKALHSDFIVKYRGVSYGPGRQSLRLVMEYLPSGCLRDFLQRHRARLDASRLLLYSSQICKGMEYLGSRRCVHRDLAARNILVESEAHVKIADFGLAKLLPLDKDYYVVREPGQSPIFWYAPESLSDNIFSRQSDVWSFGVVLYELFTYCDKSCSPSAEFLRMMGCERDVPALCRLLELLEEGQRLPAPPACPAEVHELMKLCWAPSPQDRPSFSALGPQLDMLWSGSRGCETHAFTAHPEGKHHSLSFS", "assay": "Biochemical JAK and Tyk2 Kinase Assays (LanthaScreen), JAK3", "details": "1.6 μM ATP (Km), pIC50 converted to pKi by Cheng-Prusoff"}},
  "data": [
    {"compound": "CCS(=O)(=O)N1[C@@H]2CCC[C@H]1C[C@H](N(C)c1nc(COC3COC3)c(F)c(Nc3cc(C)[nH]n3)n1)C2", "note": "[Compound 41, N2-((1R,3s,5S)-9-(ethylsulfonyl)-9-azabicyclo[3.3.1]nonan-3-yl)-5-fluoro-N2-methyl-N4-(5-methyl-1H-pyrazol-3-yl)-6-((oxetan-3-yloxy)methyl)pyrimidine-2,4-diamine]", "values": [
      {"measurement": "Tyk 2 (pKi)", "setting": "[1]", "value": "A (A represents a pKi value ≥10 (Ki≤0.1 nM))"},
      {"measurement": "Tall-1 IL2 pSTAT5 (pIC50)", "setting": "[2]", "value": "A (A represents a pIC50 value ≥8.0)"},
      {"measurement": "JAK 1 (pKi)", "setting": "[3]", "value": "A (A represents a pKi value ≥10 (Ki≤0.1 nM))"},
      {"measurement": "Solubility at PH 7.4 (μmol)", "setting": "[4]", "value": "D (D represents a value between 10 and 50)"},
      {"measurement": "HLM Clin μL/min/mg", "setting": "[5]", "value": "C (C represents a Clint value between 130 and 500)"},
      {"measurement": "JAK 3 (pKi)", "setting": "[6]", "value": "B (B represents a pKi value between 9 and 10 (Ki between 1 nM and 0.1 nM))"}
    ]},
    {"compound": "CCS(=O)(=O)N1[C@@H]2CCC[C@H]1C[C@H](N(C)c1nc(Nc3cc(C)[nH]n3)cc(C3CCCO3)n1)C2", "note": "(stereo partly drawn) [Compound 8, N^2-((1R,3s,5S)-9-(ethylsulfonyl)-9-azabicyclo[3.3.1]nonan-3-yl)-N2-methyl-N4-(5-methyl-1H-pyrazol-3-yl)-6-(tetrahydrofuran-2-yl)pyrimidine-2,4-diamine]", "values": [
      {"measurement": "Tyk 2 (pKi)", "setting": "[1]", "value": "A (A represents a pKi value ≥10 (Ki≤0.1 nM))"},
      {"measurement": "Tall-1 IL2 pSTAT5 (pIC50)", "setting": "[2]", "value": "A (A represents a pIC50 value ≥8.0)"},
      {"measurement": "JAK 1 (pKi)", "setting": "[3]", "value": "A (A represents a pKi value ≥10 (Ki≤0.1 nM))"},
      {"measurement": "Solubility at PH 7.4 (μmol)", "setting": "[4]", "value": "C (C represents a value between 50 and 250)"},
      {"measurement": "HLM Clin μL/min/mg", "setting": "[5]", "value": "A (A represents a Clint value between 1250 and 3000)"},
      {"measurement": "JAK 3 (pKi)", "setting": "[6]", "value": "B (B represents a pKi value between 9 and 10 (Ki between 1 nM and 0.1 nM))"}
    ]},
    {"compound": "COC(=O)N1[C@@H]2CCC[C@H]1C[C@H](N(C)c1nc(Nc3cc(C)[nH]n3)cc(O[C@@H]3CCOC3)n1)C2", "note": "[Compound 23]", "values": [
      {"measurement": "Ki", "setting": "[1]; read-out: Tyk 2 (pKi) (converted)", "value": "0.1 to 1", "unit": "nM"},
      {"measurement": "IC50", "setting": "[2]; read-out: Tall-1 IL2 pSTAT5 (pIC50) (converted)", "value": "10 to 31.6", "unit": "nM"},
      {"measurement": "Ki", "setting": "[3]; read-out: JAK 1 (pKi) (converted)", "value": "0.1 to 1", "unit": "nM"},
      {"measurement": "Ki", "setting": "[6]; read-out: JAK 3 (pKi) (converted)", "value": "0.1 to 1", "unit": "nM"}
    ]},
    {"compound": "CCS(=O)(=O)N1[C@@H]2CCC[C@H]1C[C@H](N(C)c1nc(CO[C@@H]3CCOC3)c(F)c(Nc3cc(C)[nH]n3)n1)C2", "note": "[Compound 43, N2-((1R,3s,5S)-9-(ethylsulfonyl)-9-azabicyclo[3.3.1]nonan-3-yl)-5-fluoro-N2-methyl-N4-(5-methyl-1H-pyrazol-3-yl)-6-((((R)-tetrahydrofuran-3-yl)oxy)methyl)pyrimidine-2,4-diamine]", "values": [
      {"measurement": "Tyk 2 (pKi)", "setting": "[1]", "value": "A (A represents a pKi value ≥10 (Ki≤0.1 nM))"},
      {"measurement": "Tall-1 IL2 pSTAT5 (pIC50)", "setting": "[2]", "value": "A (A represents a pIC50 value ≥8.0)"},
      {"measurement": "JAK 1 (pKi)", "setting": "[3]", "value": "B (B represents a pKi value between 9 and 10 (Ki between 1 nM and 0.1 nM))"},
      {"measurement": "Solubility at PH 7.4 (μmol)", "setting": "[4]", "value": "B (B represents a value between 250 and 500)"},
      {"measurement": "HLM Clin μL/min/mg", "setting": "[5]", "value": "C (C represents a Clint value between 130 and 500)"},
      {"measurement": "JAK 3 (pKi)", "setting": "[6]", "value": "B (B represents a pKi value between 9 and 10 (Ki between 1 nM and 0.1 nM))"}
    ]},
    {"compound": "CCS(=O)(=O)N1[C@@H]2CCC[C@H]1C[C@H](N(C)c1nc(CO[C@H]3CCOC3)c(F)c(Nc3cc(C)[nH]n3)n1)C2", "note": "[Compound 42, N2-((1R,3s,5S)-9-(ethylsulfonyl)-9-azabicyclo[3.3.1]nonan-3-yl)-5-fluoro-N2-methyl-N4-(5-methyl-1H-pyrazol-3-yl)-6-((((S)-tetrahydrofuran-3-yl)oxy)methyl)pyrimidine-2,4-diamine]", "values": [
      {"measurement": "Tyk 2 (pKi)", "setting": "[1]", "value": "A (A represents a pKi value ≥10 (Ki≤0.1 nM))"},
      {"measurement": "Tall-1 IL2 pSTAT5 (pIC50)", "setting": "[2]", "value": "A (A represents a pIC50 value ≥8.0)"},
      {"measurement": "JAK 1 (pKi)", "setting": "[3]", "value": "B (B represents a pKi value between 9 and 10 (Ki between 1 nM and 0.1 nM))"},
      {"measurement": "Solubility at PH 7.4 (μmol)", "setting": "[4]", "value": "B (B represents a value between 250 and 500)"},
      {"measurement": "HLM Clin μL/min/mg", "setting": "[5]", "value": "B (B represents a Clint value between 500 and 1250)"},
      {"measurement": "JAK 3 (pKi)", "setting": "[6]", "value": "B (B represents a pKi value between 9 and 10 (Ki between 1 nM and 0.1 nM))"}
    ]}
  ]
}
